Experimental data taken from patent publication US6071896A, “Suppression of thromboxane levels by percutaneous administration of aspirin” (Gundersen Clinic, Ltd., priority 1998, dated 2000).
“Also recorded” adds a separate entry of the source.

Legend:
[1] = tested on: PGI2 formation in response to intravenous bradykinin; assay: Urinary PGI-M excretion at rest and after bradykinin infusion, Example 3; format: in vivo, human; details: for PGI-M (stim) post ASA: bradykinin-stimulated
Method: (§1) In an additional 4 subjects, we examined the increase in PGI2 formation in response to intravenous bradykinin prior to and following oral aspirin 75 mg or dermal aspirin 750 mg daily for 14 days. The protocol for bradykinin has been described previously [Clark, N.Engl.J.Med 325:1137 (1991)]. Volunteers were admitted after an overnight fast to the Clinical Research Center. Blood samples were obtained for serum TXB2 and the subject asked to void. Through a peripheral vein, 1 liter of normal saline was infused over 1 hour. After a further hour, bradykinin was infused in incremental doses of 100-800 ng/kg/min, each over 15 mm. The infusion was continued at the maximum tolerated dose for a total period of 2 hr. Blood pressure and heart rate were monitored continuously. Urine was collected in separate 2 hr aliquots prior to, during and following the bradykinin infusion.
(§2) ^1 The excretion of TXM and PGIM before and following dermal aspirin
(§3) 750 mg/day or oral aspirin 75 mg/day for 10 days. Urine samples were
(§4) collected over 2 hr before (rest) and following the administration of […]

[2] = Plasma aspirin and salicylate after dermal aspirin (NICI-GCMS), Example 4; format: in vivo, human; details: dermal aspirin 750 mg, single application
Method: (§5) The preservation of vascular cyclooxygenase is consistent with the low bioavailability of the dermal aspirin. Plasma aspirin and salicylate were determined using a highly sensitive assay that can measure levels of <0.1 ng/ml. Following oral aspirin 325 mg or 162 mg, peak plasma aspirin levels were 2.0 and 1.3 ug/ml, respectively. In contrast, following dermal aspirin, plasma levels peaked at 237±114 ng/ml and plasma salicylate peaked at 788±114 ng/ml.
Aspirin was applied in a dose of 750 mg on one limb over a 15 min interval. Samples were drawn from the opposite arm. Blood was withdrawn into heparin (10 U/ml final concentration) and potassium fluoride (5% final concentration), the latter to prevent ex vivo metabolism of aspirin by plasma esterases. The plasma was separated immediately and stored at […] until analyzed. Aspirin and its metabolite, salicylic acid, were measured by NICI-GCMS using deuterium-labelled analogues as internal standards, as previously described [Clark, supra].

[3] = tested on: TX-M excretion (TXA2 biosynthesis); assay: Urinary TX-M excretion before and after dermal or oral aspirin, Example 3; format: in vivo, human; parameters: TX-M post ASA: unit not given beside the values
Method: as §1, §2, §3, §4

[4] = tested on: thromboxane synthesis; details: cited from earlier work
[5] = Plasma aspirin levels following oral aspirin; format: in vivo; details: human
Method: as §5

[6] = Hemoccults, gastrointestinal symptoms and side effects, Example 1; format: in vivo, human; details: 5 volunteers, topical aspirin
Text: Five healthy adult volunteers (3 male, 2 female) were studied. Each refrained from ingesting oral aspirin for two weeks prior to study. Prior to treatment in accordance with the present invention, baseline thromboxane levels and hemoccults were obtained.
After base levels of thromboxane had been measured, the aspirin solution was first applied on the morning of Day 1 to the skin of the human subjects within an hour of mixing by rubbing the aspirin solution on the arms and/or chest of the subject. The application was repeated with freshly prepared solution for each of four additional mornings (Days 2-5) in the same manner. Between applications the subjects followed their normal schedule of bathing and showering. Eight hours after the fifth application (on Day 5) blood was drawn for salicylate levels and thromboxane levels to be determined. With one subject, blood was drawn for TXA2 levels every day just before application of a new aspirin solution (i.e., approximately 24 hours after application of the previous aspirin solution). Hemoccults were also tested.

Compound: CC(=O)Oc1ccccc1C(=O)O [aspirin, acetyl salicylic acid]
- PGI-M (rest) post ASA ([1]; Dermal aspirin 750 mg/day, PT 1, pre ASA 163): 138
- PGI-M (rest) post ASA ([1]; Dermal aspirin 750 mg/day, PT 2, pre ASA 105): 149
- PGI-M (rest) post ASA ([1]; Oral aspirin 75 mg/day, PT 1, pre ASA 104): 63
- PGI-M (rest) post ASA ([1]; Oral aspirin 75 mg/day, PT 2, pre ASA 200): 96
- PGI-M (stim) post ASA ([1]; Dermal aspirin 750 mg/day, PT 1, pre ASA 1520): 1553
- PGI-M (stim) post ASA ([1]; Dermal aspirin 750 mg/day, PT 2, pre ASA 559): 601
- PGI-M (stim) post ASA ([1]; Oral aspirin 75 mg/day, PT 1, pre ASA 433): 173
- PGI-M (stim) post ASA ([1]; Oral aspirin 75 mg/day, PT 2, pre ASA 340): 132
- Resting and bradykinin-stimulated PGI-M excretion ([1]; dermal aspirin 750 mg/day): PGI2 formation in response to bradykinin infusion was also unaltered; also recorded: largely unaltered; also recorded: had not effect on
- Resting and bradykinin-stimulated PGI-M excretion ([1]; oral aspirin 75 mg/day): suppressed basal and bradykinin-stimulated PGI-M excretion; also recorded: decrease in urinary PGI-M at rest and following stimulation with bradykinin
- Plasma aspirin up to three hours [2]: barely detectable
- concentration at 24 h ([2]; human, plasma, topical or ocular): 4 ± 3 ng/mL
- Cmax ([2]; human, plasma, topical or ocular, read-out: Plasma aspirin, about 3 h (peak)): 237 ± 114 ng/mL
- concentration at 6 h ([2]; human, plasma, topical or ocular, read-out: Plasma aspirin, six hours): 52 ± 14 ng/mL
- TX-M post ASA ([3]; Dermal aspirin 750 mg/day, PT 1, pre ASA 220): 46
- TX-M post ASA ([3]; Dermal aspirin 750 mg/day, PT 2, pre ASA 121): 29
- TX-M post ASA ([3]; Oral aspirin 75 mg/day, PT 1, pre ASA 136): 26
- TX-M post ASA ([3]; Oral aspirin 75 mg/day, PT 2, pre ASA 111): 43
- Urinary TX-M ([3]; dermal aspirin 750 mg/day): marked fall in urinary TX-M; also recorded: suppressed TXM
- Urinary TX-M ([3]; oral aspirin 75 mg/day): marked fall in urinary TX-M
- Thromboxane-B2 synthesis in vitro and urinary 2,3-dinor-thromboxane-B2 ([4]; approximately 40 mg/day): inhibit thromboxane-B2 synthesis in vitro and to reduce the urinary excretion of 2,3-dinor-thromboxane-B2
- TXA2 and PGI2 synthesis ([4]; approximately 1,000 mg/day): inhibits both TXA2 and PGI2 synthesis
- Maternal and neonatal thromboxane ([4]; low doses, women at risk for pregnancy-induced hypertension): selectively suppress maternal thromboxane levels, but only partially suppressed neonatal thromboxane
- Cmax ([5]; oral aspirin 75 mg, read-out: Levels following oral aspirin): 1000 to 2000 ng/mL
- Cmax ([5]; oral aspirin 162 mg, read-out: Peak plasma aspirin level): 1300 ng/mL
- Cmax ([5]; oral aspirin 325 mg, read-out: Peak plasma aspirin level): 2000 ng/mL
- Gastrointestinal symptoms or other side effects [6]: No gastrointestinal symptoms or other side effects were noted or reported
- Hemoccults [6]: negative
